Test results taken from PubChem BioAssay (NCI).
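1) Cells in 96-well plates. 2) Compound, 48 h, 5 concentrations. 3) Linear interpolation between surrounding doses. 4) Unreached endpoint = highest concentration. The concentration for full growth arrest is given as TGI.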

How the values were obtained:
Experiment in all cases: NCI anticancer screen, dose series, 48 h
[1] = test system: A549 NSCLC
[2] = test system: CAKI-1 renal
[3] = test system: CCRF-CEM leukemia
[4] = test system: COLO 205 colon
[5] = test system: HCT-116 colon
[6] = test system: HL-60(TB) leukemia
[7] = test system: HS 578T breast
[8] = test system: IGROV1 ovarian
[9] = test system: KM12 colon
[10] = test system: LOX IMVI melanoma
[11] = test system: MALME-3M melanoma
[12] = test system: MDA-MB-435
[13] = test system: NCI/ADR-RES ovarian
[14] = test system: RPMI-8226 leukemia
[15] = test system: SF-268 CNS
[16] = test system: SF-539 CNS
[17] = test system: SK-MEL-28 melanoma
[18] = test system: UACC-62 melanoma
[19] = test system: UO-31 renal
[20] = test system: NCI-H226 lung

Structure (SMILES) | TGI [1] [µM] | TGI [2] [µM] | TGI [3] [µM] | TGI [4] [µM] | TGI [5] [µM] | TGI [6] [µM] | TGI [7] [µM] | TGI [8] [µM] | TGI [9] [µM] | TGI [10] [µM] | TGI [11] [µM] | TGI [12] [µM] | TGI [13] [µM] | TGI [14] [µM] | TGI [15] [µM] | TGI [16] [µM] | TGI [17] [µM] | TGI [18] [µM] | TGI [19] [µM] | TGI [20] [µM]
O=C(Nc1cccc(F)c1)c1cc2ccc(O)cc2oc1=Nc1cccc(F)c1 | > 100 | > 100 | 6.72 | > 100 | > 100 | 10.1 | 50.8 | 5.73 | > 100 | 9.35 | 84 | > 100 | 74.5 | > 100 | > 100 | > 100 | > 100 | > 100 | > 100 | 
CCOC(=O)c1cn2c(n1)sc1cc(OC)ccc12 | > 100 | > 100 |  | > 27.5 | > 43.9 |  | 81.2 | > 100 | > 100 | > 100 | > 100 | 3.48 | > 87.3 | > 100 | > 100 | > 100 | > 100 | > 100 | > 100 | 98.2
CC(=O)C(C(=O)c1ccc(C)cc1)[C@H]1OC(C)(C)O[C@H]1[C@H]1COC(C)(C)O1 (stereo partly drawn) | 22.9 | 12.8 |  | 18.7 | 6.81 |  | > 50 | 11 | 18.9 | 8.16 | 18.4 | 9.55 | > 50 | > 50 | 28.5 | 6.3 | 15.8 | 12.5 | 14 | 29.2
Cc1ccc(/C=C2\NC(=S)NC2=O)cc1 | > 100 | > 100 | > 100 | > 100 | > 100 |  | > 100 | > 100 | > 100 | > 100 | > 100 | > 100 | > 100 | > 100 | > 100 | > 100 | > 100 | > 100 | > 100 | > 100
O=c1[nH]nc(-c2ccccc2)n1/N=C/c1ccccc1O | > 100 | > 100 |  | > 100 | > 100 |  | 96.2 | > 100 | > 100 | > 100 | > 100 | > 100 | > 100 | > 100 | > 100 | > 100 |  | > 100 | > 100 | > 100
Oc1ccc(/C=C/c2cccc(/C=C/c3ccc(O)c(O)c3)n2)cc1O | 22.2 | 90.5 | > 100 | 28.9 | 20.1 | 13.4 | > 100 | 19.6 | 36.2 | 21.7 |  | 28 | 26.7 | 31.1 | 23.3 | 9.39 | 38.3 | 18.6 | 11.2 | 
CCOc1ccc(N=C(NC(=O)c2ccccc2)SC)cc1 | > 100 | > 100 | > 100 | > 100 | > 100 | > 100 |  | > 100 |  | > 100 | > 100 |  |  | > 100 | > 100 | > 100 | > 100 | > 100 | > 100 | > 100
O=C1CCCC/C1=C\c1ccc([N+](=O)[O-])cc1 | 95.9 | 35.7 | 30.4 | 32.3 | 25.7 | > 100 | 70.8 | 32.1 | 38.4 | 3.74 |  |  | 57.1 | 44.3 | > 100 | 43.3 | 23.5 | 30.7 | 36.3 | 
CC(C)(C)OC(=O)N1NC(c2ccccc2)CC1c1ccccc1 (stereo not drawn) | 32.9 | > 100 | 71.5 | 41.2 | > 100 |  | > 100 |  | 41.9 |  |  | 65.3 | 47.9 | > 100 | > 100 | > 100 |  | 88.1 | 53.2 | 88.2
O=c1c2c(-c3ccccc3)c3ccccc3nc2cnn1-c1ccccc1 | > 100 | > 100 | > 100 | > 100 | > 100 | > 100 |  | > 100 | > 100 | > 100 | > 100 |  |  | > 100 | > 100 | > 100 | > 100 | > 100 | > 100 | > 100
CC1(C)OC(=S)N(c2ccccc2)C12C=Cc1cc3ccccc3nc1S2 (stereo not drawn) | > 100 |  | > 100 | > 100 | > 100 | > 100 |  | > 100 | > 100 | > 100 | > 100 |  |  | > 100 | > 100 | > 100 | > 100 | > 100 | > 100 | > 100
COc1cccc(-c2cc(=O)c3cc4c(cc3[nH]2)OCO4)c1 | > 100 |  | > 100 | 0.303 | > 100 | 0.896 |  | 6.12 |  | > 100 | > 67.6 |  |  | > 100 | > 69.5 | 0.317 | > 100 | > 100 | > 100 | 0.593
CC(=O)c1cccc(NC(=O)C(=O)c2c(O)c3ccccc3oc2=O)c1 | > 100 | > 100 | > 100 |  | > 100 |  | > 100 | > 100 | > 100 | > 100 | > 100 | > 100 | > 100 | > 100 | > 100 | > 100 | > 100 | > 100 | > 100 | > 100
